This passage reports AC50 results from ChEMBL document CHEMBL5291721, “A preclinical secondary pharmacology resource illuminates target-adverse drug reaction associations of marketed drugs” (Nat Commun, 2023).

The target of one experiment is T1, Adenosine receptor A1 (Homo sapiens, UniProt P30542).
T1 sequence (P30542 whole entry): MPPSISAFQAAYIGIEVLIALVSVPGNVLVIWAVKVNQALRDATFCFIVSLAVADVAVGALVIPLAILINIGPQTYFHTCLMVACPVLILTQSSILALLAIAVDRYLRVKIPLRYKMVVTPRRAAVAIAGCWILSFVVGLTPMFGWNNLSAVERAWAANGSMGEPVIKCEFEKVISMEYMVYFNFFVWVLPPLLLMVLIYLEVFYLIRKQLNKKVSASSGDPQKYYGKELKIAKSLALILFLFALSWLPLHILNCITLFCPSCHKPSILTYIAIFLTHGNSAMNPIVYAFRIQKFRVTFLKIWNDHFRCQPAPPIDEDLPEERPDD

Experiment [1] concerns the target Beta-1 adrenergic receptor (Homo sapiens, UniProt P08588). The class given is functional.
The target of a further experiment is Vasopressin V2 receptor (Homo sapiens, UniProt P30518).
Experiment [2] addresses T2, Gastrin/cholecystokinin type B receptor (Homo sapiens, UniProt P32239).
T2 sequence (P32239 whole entry): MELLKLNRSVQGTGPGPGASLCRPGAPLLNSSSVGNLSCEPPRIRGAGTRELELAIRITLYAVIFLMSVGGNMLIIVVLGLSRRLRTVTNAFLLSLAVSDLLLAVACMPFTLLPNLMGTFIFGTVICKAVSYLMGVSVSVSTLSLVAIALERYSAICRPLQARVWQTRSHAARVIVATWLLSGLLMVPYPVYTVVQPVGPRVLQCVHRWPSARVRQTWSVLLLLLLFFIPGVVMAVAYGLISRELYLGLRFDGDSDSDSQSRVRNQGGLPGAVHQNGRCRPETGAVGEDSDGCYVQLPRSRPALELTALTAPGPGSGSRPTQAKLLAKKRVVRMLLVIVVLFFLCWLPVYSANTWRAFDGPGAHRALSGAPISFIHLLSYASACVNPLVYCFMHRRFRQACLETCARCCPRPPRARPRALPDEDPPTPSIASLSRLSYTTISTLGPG

For experiment [3], the target named is T3, Muscarinic acetylcholine receptor M2 (Homo sapiens, UniProt P08172).
T3 sequence (P08172 whole entry): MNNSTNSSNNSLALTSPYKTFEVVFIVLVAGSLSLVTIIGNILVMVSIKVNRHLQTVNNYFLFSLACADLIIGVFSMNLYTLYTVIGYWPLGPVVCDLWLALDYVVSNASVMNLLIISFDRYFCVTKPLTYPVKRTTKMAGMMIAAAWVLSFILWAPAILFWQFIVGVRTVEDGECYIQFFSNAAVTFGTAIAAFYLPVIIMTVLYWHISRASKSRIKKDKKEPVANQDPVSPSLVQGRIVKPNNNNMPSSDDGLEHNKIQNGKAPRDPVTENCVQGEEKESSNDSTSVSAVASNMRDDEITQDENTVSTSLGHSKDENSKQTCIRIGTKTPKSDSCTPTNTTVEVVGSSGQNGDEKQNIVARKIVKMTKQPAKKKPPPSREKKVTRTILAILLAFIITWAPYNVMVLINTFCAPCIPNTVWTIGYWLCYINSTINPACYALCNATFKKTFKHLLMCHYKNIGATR
The class given is functional, cell-based.

For experiment [4], the target named is Neuronal acetylcholine receptor subunit alpha-4 (Homo sapiens, UniProt P43681).
The target of the next experiment is T4, Estrogen receptor (Homo sapiens, UniProt P03372).
T4 sequence (P03372 whole entry): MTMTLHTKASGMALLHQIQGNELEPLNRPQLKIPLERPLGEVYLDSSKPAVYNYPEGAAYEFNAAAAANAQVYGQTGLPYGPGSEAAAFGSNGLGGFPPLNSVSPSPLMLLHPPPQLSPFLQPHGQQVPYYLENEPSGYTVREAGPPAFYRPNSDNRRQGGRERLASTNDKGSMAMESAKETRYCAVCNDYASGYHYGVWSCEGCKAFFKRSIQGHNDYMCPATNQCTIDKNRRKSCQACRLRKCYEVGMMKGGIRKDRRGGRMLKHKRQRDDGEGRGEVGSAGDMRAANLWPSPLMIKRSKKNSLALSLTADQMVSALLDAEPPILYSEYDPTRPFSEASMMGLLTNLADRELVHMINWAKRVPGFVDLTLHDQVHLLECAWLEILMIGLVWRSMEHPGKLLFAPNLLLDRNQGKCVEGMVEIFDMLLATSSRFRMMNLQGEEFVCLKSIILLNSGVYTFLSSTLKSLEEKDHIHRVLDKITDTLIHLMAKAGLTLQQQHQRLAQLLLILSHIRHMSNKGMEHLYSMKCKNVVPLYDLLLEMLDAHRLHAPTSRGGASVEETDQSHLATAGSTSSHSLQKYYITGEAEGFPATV

In experiment [5] the target is T5, 5-hydroxytryptamine receptor 1A (Homo sapiens, UniProt P08908).
T5 sequence (P08908 whole entry): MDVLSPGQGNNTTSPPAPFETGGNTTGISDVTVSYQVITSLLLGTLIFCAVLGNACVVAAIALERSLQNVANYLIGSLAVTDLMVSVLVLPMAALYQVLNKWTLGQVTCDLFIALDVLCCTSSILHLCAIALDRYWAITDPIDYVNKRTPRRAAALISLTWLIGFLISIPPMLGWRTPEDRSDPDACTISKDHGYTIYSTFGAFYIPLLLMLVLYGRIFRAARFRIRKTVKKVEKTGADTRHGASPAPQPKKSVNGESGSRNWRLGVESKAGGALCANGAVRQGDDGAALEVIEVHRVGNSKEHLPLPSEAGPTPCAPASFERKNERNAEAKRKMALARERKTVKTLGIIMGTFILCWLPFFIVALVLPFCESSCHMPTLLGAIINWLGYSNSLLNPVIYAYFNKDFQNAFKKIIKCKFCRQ
The format is functional, cell-based.

For experiment [6], the target named is 3',5'-cyclic-AMP phosphodiesterase 4D (Homo sapiens, UniProt Q08499). The class given is functional.
Experiment [7] has as its target cGMP-inhibited 3',5'-cyclic phosphodiesterase 3A (Homo sapiens, UniProt Q14432). The format is functional.
The target of another experiment is T6, Thromboxane A2 receptor (Homo sapiens, UniProt P21731).
T6 sequence (P21731 whole entry): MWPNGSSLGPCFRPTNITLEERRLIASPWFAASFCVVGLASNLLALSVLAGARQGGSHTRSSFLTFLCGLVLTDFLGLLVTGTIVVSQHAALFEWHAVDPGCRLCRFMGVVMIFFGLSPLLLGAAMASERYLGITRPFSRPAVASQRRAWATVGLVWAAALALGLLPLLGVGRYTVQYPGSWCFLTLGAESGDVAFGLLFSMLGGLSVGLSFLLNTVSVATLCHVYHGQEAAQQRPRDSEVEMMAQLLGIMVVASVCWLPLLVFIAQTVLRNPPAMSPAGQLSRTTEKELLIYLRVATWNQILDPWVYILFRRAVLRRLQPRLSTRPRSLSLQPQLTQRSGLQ

The AC50 is the midpoint of the concentration-response curve, whichever way the signal moves.
Further: assay procedure not described here.

Sequence of Neuronal acetylcholine receptor subunit alpha-4 (P43681 whole entry): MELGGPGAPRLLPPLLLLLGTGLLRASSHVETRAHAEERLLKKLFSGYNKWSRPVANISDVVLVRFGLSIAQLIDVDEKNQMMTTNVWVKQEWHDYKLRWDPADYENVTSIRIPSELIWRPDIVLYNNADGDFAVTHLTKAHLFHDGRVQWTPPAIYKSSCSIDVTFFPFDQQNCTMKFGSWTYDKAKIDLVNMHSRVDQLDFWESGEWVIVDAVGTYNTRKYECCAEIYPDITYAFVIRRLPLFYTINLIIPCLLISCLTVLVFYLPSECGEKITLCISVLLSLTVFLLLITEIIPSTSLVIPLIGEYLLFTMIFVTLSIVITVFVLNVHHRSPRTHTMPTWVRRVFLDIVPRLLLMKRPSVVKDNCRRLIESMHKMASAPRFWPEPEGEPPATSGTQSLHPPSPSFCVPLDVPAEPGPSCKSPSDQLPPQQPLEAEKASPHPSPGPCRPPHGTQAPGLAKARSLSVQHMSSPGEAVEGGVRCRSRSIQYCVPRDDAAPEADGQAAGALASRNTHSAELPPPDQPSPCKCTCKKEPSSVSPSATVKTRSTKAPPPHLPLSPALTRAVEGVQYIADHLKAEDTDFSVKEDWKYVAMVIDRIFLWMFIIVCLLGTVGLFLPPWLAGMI
Sequence of Vasopressin V2 receptor (P30518 whole entry): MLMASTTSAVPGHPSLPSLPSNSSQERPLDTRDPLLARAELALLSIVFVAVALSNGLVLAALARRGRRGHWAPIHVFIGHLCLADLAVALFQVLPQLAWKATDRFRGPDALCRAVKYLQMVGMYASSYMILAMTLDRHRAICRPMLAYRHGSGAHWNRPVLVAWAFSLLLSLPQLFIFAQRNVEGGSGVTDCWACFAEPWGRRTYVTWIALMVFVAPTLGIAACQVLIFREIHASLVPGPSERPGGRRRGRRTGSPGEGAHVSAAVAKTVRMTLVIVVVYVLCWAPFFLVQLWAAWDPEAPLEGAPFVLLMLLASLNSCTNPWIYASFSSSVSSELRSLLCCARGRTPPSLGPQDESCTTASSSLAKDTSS
Sequence of cGMP-inhibited 3',5'-cyclic phosphodiesterase 3A (Q14432 whole entry): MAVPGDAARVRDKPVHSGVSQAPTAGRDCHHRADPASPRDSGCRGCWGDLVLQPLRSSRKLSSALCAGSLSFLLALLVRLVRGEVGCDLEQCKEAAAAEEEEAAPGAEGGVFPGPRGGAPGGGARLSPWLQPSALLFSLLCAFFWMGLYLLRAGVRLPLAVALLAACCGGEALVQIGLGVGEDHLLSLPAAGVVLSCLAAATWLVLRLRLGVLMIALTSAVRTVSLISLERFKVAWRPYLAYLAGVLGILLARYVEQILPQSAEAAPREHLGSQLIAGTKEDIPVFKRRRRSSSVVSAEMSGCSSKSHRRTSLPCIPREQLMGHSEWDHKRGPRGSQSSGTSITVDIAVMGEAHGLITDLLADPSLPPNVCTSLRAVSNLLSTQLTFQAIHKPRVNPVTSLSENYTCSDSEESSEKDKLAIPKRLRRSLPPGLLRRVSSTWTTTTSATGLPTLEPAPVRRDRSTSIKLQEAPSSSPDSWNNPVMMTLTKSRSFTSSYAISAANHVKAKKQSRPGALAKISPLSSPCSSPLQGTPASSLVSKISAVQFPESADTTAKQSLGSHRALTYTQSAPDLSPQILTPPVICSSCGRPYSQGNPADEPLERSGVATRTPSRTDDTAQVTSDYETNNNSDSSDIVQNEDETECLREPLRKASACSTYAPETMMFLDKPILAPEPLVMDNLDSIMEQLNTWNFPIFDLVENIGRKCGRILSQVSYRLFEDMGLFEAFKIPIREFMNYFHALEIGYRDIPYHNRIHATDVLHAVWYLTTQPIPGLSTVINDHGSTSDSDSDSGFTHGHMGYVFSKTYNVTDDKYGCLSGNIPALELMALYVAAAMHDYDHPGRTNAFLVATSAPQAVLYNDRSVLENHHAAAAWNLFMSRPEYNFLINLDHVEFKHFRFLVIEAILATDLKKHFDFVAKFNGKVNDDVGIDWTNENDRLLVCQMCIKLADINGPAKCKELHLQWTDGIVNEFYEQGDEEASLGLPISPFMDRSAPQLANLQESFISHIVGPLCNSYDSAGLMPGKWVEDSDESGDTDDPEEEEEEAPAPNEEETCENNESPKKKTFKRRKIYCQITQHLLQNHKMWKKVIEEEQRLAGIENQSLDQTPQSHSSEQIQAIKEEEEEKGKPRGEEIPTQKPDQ
Sequence of 3',5'-cyclic-AMP phosphodiesterase 4D (Q08499 whole entry): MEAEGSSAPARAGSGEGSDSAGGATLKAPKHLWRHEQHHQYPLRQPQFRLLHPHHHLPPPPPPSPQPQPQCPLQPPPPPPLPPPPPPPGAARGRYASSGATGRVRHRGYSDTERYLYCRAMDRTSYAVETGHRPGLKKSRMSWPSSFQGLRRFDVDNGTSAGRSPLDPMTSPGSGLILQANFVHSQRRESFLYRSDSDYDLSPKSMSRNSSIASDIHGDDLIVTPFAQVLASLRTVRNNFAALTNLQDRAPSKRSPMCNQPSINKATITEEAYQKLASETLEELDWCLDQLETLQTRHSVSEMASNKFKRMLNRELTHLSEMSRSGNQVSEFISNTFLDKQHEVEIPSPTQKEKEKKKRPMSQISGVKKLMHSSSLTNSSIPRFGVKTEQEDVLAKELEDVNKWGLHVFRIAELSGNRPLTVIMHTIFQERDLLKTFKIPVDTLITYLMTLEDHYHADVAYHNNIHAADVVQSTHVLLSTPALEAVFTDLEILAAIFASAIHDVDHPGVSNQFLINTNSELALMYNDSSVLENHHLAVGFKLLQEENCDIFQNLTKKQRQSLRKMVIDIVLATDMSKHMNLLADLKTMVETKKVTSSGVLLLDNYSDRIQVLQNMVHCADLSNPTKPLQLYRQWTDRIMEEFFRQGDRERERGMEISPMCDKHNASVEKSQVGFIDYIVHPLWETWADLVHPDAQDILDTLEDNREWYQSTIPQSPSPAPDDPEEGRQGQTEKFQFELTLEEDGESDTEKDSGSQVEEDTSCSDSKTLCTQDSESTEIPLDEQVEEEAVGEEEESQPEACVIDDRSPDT
Sequence of Beta-1 adrenergic receptor (P08588 whole entry): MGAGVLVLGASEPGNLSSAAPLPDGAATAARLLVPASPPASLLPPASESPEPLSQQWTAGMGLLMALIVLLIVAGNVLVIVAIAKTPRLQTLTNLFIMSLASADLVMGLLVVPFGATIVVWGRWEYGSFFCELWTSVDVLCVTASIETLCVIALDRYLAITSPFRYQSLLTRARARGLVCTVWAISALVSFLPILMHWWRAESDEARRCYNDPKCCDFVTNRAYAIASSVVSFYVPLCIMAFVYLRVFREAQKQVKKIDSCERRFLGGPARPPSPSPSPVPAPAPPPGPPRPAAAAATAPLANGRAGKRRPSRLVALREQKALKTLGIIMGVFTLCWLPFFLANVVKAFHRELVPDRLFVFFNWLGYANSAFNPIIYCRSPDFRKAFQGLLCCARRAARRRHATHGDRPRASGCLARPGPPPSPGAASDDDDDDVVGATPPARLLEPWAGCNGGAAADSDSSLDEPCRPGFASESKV

On to `CC1=C(C(=O)O)N2C(=O)[C@@H](NC(=O)[C@H](N)C3=CCC=CC3)[C@H]2SC1` [CEPHRADINE], for which the AC50 (at Adenosine receptor A1; in experiment [1]; on Vasopressin V2 receptor; in [2]; in [3]; in experiment [4]) was over 30 µM throughout. Further, the AC50 (at Estrogen receptor; in experiment [5]; in [6]; in experiment [7]) was over 30 µM each time.

Regarding `CCC1(C)CC(=O)NC1=O` (stereo not given) [ETHOSUXIMIDE], the AC50 (at Adenosine receptor A1; in experiment [1]; on Vasopressin V2 receptor; in [3]; in [4]; on Estrogen receptor) was over 10 µM in each case. Further, the AC50 in experiment [5] is over 10 µM; in [6], over 30 µM; at Thromboxane A2 receptor it was over 10 µM; in experiment [7], over 30 µM.

Turning to `CCN1C(=O)NC(c2ccccc2)C1=O` (stereo not given) [ETHOTOIN], the AC50 (at Adenosine receptor A1; in [1]; at Vasopressin V2 receptor; in experiment [2]; in experiment [3]; in experiment [4]) was over 30 µM each time. The AC50 (on Estrogen receptor; in [5]; in experiment [6]; in experiment [7]) was over 30 µM in each case.

On to `CN1C(=O)CN=C(c2ccccc2F)c2cc([N+](=O)[O-])ccc21` [FLUNITRAZEPAM], for which the AC50 at Adenosine receptor A1 was over 30 µM; in experiment [1], over 10 µM; at Vasopressin V2 receptor, over 30 µM; in experiment [3], over 10 µM; in [4], over 10 µM; at Estrogen receptor it was over 30 µM. The AC50 is over 10 µM in [5], over 30 µM in [6], over 30 µM on Thromboxane A2 receptor and over 30 µM in [7].

Consider `CC(=O)[C@@]1(O)CC[C@H]2[C@@H]3C[C@H](C)C4=CC(=O)C=C[C@]4(C)[C@@]3(F)[C@@H](O)C[C@@]21C` [FLUOROMETHOLONE], for which the AC50 was over 10 µM at Adenosine receptor A1; over 10 µM in experiment [1]; over 10 µM on Vasopressin V2 receptor; over 10 µM in experiment [3]; over 10 µM in experiment [4]; over 30 µM on Estrogen receptor. In addition, the AC50 in experiment [5] was over 10 µM; in [6], over 30 µM; on Thromboxane A2 receptor it was over 10 µM; in experiment [7] it was over 30 µM.

Regarding `O=C(C[S+]([O-])Cc1ccco1)NC/C=C\COc1cc(CN2CCCCC2)ccn1` (stereo not given) [LAFUTIDINE], the AC50 (at Adenosine receptor A1; in experiment [1]; at Vasopressin V2 receptor; in [3]; in [4]; on Estrogen receptor) was over 10 µM each time. The AC50 is over 30 µM in experiment [5], over 30 µM in experiment [6], over 10 µM on Thromboxane A2 receptor and over 30 µM in experiment [7].

`CCC1(CC)C(=O)NC(=O)N(C)C1=O` [METHARBITAL]: the AC50 (at Adenosine receptor A1; in experiment [1]; at Vasopressin V2 receptor; in experiment [3]; in experiment [4]; at Estrogen receptor) was over 10 µM each time. Also, the AC50 in experiment [5] is over 10 µM; in experiment [6], over 30 µM; on Thromboxane A2 receptor, over 10 µM; in experiment [7], over 30 µM.

`CC(C)(C)NCC(O)COc1cccc2c1CC(O)C(O)C2` (stereo not given) [NADOLOL]: the AC50 is over 10 µM on Adenosine receptor A1; 0.102 µM in experiment [1]; over 10 µM on Vasopressin V2 receptor; over 10 µM in experiment [3]; over 10 µM in experiment [4]; over 10 µM at Estrogen receptor. Also, the AC50 was over 10 µM in experiment [5], over 30 µM in [6], over 10 µM at Thromboxane A2 receptor and over 30 µM in experiment [7].

Regarding `CCOC(=O)O[C@]1(C(=O)COC(=O)CC)CC[C@H]2[C@@H]3CCC4=CC(=O)C=C[C@]4(C)[C@H]3[C@@H](O)C[C@@]21C` [PREDNICARBATE], the AC50 at Adenosine receptor A1 is over 10 µM; in experiment [1], over 10 µM; at Vasopressin V2 receptor it was over 10 µM; in experiment [3], over 10 µM; in [4], over 10 µM; on Estrogen receptor, over 30 µM. For the same compound, the AC50 in experiment [5] was over 10 µM; in [6], over 30 µM; on Thromboxane A2 receptor, over 10 µM; in experiment [7], over 30 µM.

Turning to `CCC(=O)[C@@]1(C)[C@H](C)C[C@H]2[C@@H]3CCC4=CC(=O)C=C[C@]4(C)[C@H]3[C@@H](O)C[C@@]21C` [RIMEXOLONE], the AC50 on Adenosine receptor A1 is over 10 µM; in [1], over 10 µM; at Vasopressin V2 receptor it was over 10 µM; in experiment [3] it was over 10 µM; in experiment [4] it was over 10 µM; on Estrogen receptor, over 30 µM. Moreover, the AC50 in [5] was over 10 µM; in experiment [6] it was over 30 µM; on Thromboxane A2 receptor it was over 10 µM; in experiment [7], over 30 µM.

For the compound `CC(C(=O)O)c1ccc(C(=O)c2ccccc2)s1` (stereo not given) [TIAPROFENIC ACID], the AC50 (on Adenosine receptor A1; in [1]; on Vasopressin V2 receptor; in experiment [3]; in experiment [4]; at Estrogen receptor) was over 10 µM throughout. The AC50 was over 10 µM in experiment [5], over 30 µM in [6], over 10 µM on Thromboxane A2 receptor and over 30 µM in experiment [7].
